Test results: US20230312639A1, “GPER PROTEOLYTIC TARGETING CHIMERAS” (University of Iowa Research Foundation, priority 2020, published 2023)

Assays:
HiBiT-ERα = biological target: T1, HiBiT-ERα (Homo sapiens, UniProt P03372); experiment: Nano-BiT binary luminescence complementation, transfected HEK-293 cells, total receptor; type: cell-based
T1 sequence (P03372 1-595): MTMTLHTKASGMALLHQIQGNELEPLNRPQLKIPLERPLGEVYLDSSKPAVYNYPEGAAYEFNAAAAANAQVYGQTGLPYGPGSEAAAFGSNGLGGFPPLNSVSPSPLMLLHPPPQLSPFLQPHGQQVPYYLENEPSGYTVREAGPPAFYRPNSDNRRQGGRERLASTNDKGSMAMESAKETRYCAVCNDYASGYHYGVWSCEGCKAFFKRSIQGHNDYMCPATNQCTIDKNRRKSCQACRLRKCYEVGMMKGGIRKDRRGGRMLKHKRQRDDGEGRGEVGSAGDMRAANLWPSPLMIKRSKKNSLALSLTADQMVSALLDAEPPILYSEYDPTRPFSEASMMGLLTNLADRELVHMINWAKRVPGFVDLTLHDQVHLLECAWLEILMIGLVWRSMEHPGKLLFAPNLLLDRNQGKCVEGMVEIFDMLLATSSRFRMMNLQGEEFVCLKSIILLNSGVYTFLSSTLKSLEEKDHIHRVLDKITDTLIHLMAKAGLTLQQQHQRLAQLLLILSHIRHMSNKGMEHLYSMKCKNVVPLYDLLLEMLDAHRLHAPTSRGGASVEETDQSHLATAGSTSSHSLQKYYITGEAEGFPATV
Experimental: FIG. 26. […] HEK-293 cells (ERα^-, GPER^-) were transiently transfected with 50 ng HiBiT-GPER or HiBiT-ER plus pcDNA3.1(+) zeo carrier plasmid. […] Results shown represent the mean ± S.E. of three independent experiments.
FIG. 28. […] Total receptor was then measured by binary luminescence complementation in detergent-permeabilized cells. […] Total receptor was then quantified by binary luminescence complementation. Representative luminescence data and mean values and SDs derived from three independent experiments are shown.
Transient transfections and binary Nano-Bit ™ luminescence assays. Total HiBiT-tagged GPER or ER estrogen receptors were detected in detergent-permeabilized cells by binary luminescence complementation with recombinant LgBit and substrate using the Nano-Glo HiBiT Extracellular Detection system kit (Promega Corporation, Madison, Wl). In brief, HEK293 cells (0.75 × 10^6) were seeded in 35 mm tissue culture dishes and 24 hours later were transiently transfected with 50 ng of HiBiT-GPER or HiBiT-ERa and 950 ng of pcDNA3.1(+) zeo carrier plasmid using Lipofectamine 2000 (Invitrogen, Carlsbad, CA). The next day transfected cells were harvested by trypsinization and seeded at a density of 10^4 cells/well in 96-well poly-L-lysine-coated Greiner white-bottomed microplates. On the following day, cell culture media was aspirated and replaced with 100 µL of serum-free PRF-DF12 containing E2-PROTAC, partial-PROTAC, or vehicle at various concentrations and for indicated time intervals at 37° C. […] Following treatment, total HiBiT-tagged receptor was measured in cells which were permeabilized in 0.05% Triton X-100 using HiBiT complementation reagent consisting of LgBiT protein and Nano-Gio® HiBiT substrate. Luminescence was measured using the Infinite 200 PRO multimode microplate reader from Tecan (Raleigh, NC) and reported as Relative Luminescent Units (RLU). All samples were measured in triplicate and expressed as the mean value plus or minus standard deviation.

HA-GPER = biological target: T2, HA-GPER (Homo sapiens, UniProt Q99527); experiment: Immunofluorescence with HA antibody, stably transfected HEK293 cells; type: cell-based; conditions: 100 µM, 1 hour
T2 construct: expressed in transfected cells

HA-CXCR4 = HA-CXCR4 (Homo sapiens, UniProt P61073); experiment: as above; type: cell-based; conditions: 100 µM, 1 hour
HCC1806 cells = experiment: Cell cycle analysis, propidium iodide, flow cytometry; type: cell-based, human; conditions: HCC1806, 10 µM, 24 hours
Text: (§1) FIG. 30. E2-PROTACs promote estrogen receptor-dependent G2/M arrest. E2-PROTAC induced G2/M arrest in human breast cancer cell lines expressing membrane and/or intracellular estrogen receptors. […] Fixed cells were permeabilized and dyed with propidium iodide (PI). Cell cycle data were acquired on a flow cytometer and analyzed using Flow-Jo software. Data are expressed as mean ± SEM (n=3). The percentage of cells in each phase were plotted using Prism 8.0.
(§2) Cell cycle analysis. […] Following treatment, cells were harvested by trypsinization and washed twice in ice-cold PBS. Cells were then fixed in 70% ethanol at 4° C. for 30 minutes. Fixed cells were pelleted by centrifugation at 230 g for 5 minutes and the cell pellet was incubated in Krishan’s solution (3.8 mM sodium citrate (Fisher Scientific), 0.014 mM propidium iodide (AnaSpec, Fermont, Ca), 1% NP-40 (Sigma) and 2.0 mg/mL RNase A (Fisher Scientific)) for 30 minutes at 37° C. Cells were then centrifuged and washed in PBS prior to analysis using a FacScallibur flow cytometer. The data from flow cytometry were subjected to further analysis by CellQuest software version 3.3. DNA histograms generated indicate the fractions of the cell population in the sub-G1, G0-G1, S, or G2/M phase of the cell cycle.
(§3) To investigate the biological effect associated with decreased cell viability, cell cycle analysis was performed on the same four cell lines using propidium iodide staining and measured by flow cytometry 24 hours after treatment of cells with 10 µM E2-PROTAC or partial PROTAC (FIG. 30).

MCF-7 cells = experiment: as above; type: cell-based, human; conditions: MCF-7, 10 µM, 24 hours
Text: as §1, §2, §3

MDA-MB-231 cells = experiment: as above; type: cell-based, human; conditions: MDA-MB-231, 10 µM, 24 hours
Text: as §1, §2, §3

SKBR3 cells = experiment: as above; type: cell-based, human; conditions: SKBR3, 10 µM, 24 hours
Text: as §1, §2, §3

GPER [1] = biological target: T3, GPER (Homo sapiens, UniProt Q99527); experiment: Immunostaining of surface and intracellular GPER in SKBR3 cells; conditions: SKBR3, 100 uM, 1 hour
GPER [2] = biological target: T3, GPER; experiment: Competitive binding assay in intact SKBR3 cells with E2-FITC as fluoro-tracer (flow cytometry); set-up: endogenous in cells; host or cells: SKBR3 human breast carcinoma cells (ATCC)

T3 sequence (Q99527 whole entry): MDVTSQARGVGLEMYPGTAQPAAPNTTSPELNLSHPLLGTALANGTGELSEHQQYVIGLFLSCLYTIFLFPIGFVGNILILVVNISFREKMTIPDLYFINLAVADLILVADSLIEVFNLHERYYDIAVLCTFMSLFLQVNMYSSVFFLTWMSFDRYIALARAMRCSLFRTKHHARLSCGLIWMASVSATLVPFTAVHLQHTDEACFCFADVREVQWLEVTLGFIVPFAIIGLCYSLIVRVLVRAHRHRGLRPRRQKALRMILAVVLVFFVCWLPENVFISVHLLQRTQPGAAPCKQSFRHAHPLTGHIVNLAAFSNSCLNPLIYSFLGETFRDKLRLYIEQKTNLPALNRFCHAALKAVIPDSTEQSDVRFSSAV
Chain of HA-CXCR4 (P61073 whole entry): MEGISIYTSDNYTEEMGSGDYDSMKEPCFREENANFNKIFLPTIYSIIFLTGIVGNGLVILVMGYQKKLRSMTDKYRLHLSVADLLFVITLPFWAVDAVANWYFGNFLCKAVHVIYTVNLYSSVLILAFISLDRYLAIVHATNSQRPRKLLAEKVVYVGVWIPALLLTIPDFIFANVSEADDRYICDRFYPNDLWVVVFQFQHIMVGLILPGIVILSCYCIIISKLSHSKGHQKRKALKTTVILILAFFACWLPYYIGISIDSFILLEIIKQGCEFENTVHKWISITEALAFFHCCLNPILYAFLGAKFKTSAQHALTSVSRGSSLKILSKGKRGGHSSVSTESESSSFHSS
T2 sequence (Q99527 whole entry): as the sequence (Q99527 whole entry) above

## Cc1ncsc1-c1ccc(CNC(=O)C2CC(O)CN2C(=O)C(NC(=O)COCCOCCOCCOCC(=O)OC2CCC3C4CCc5cc(O)ccc5C4CCC23C)C(C)(C)C)cc1 (centres unmarked) [UI-EP001]
HiBiT-ERα; 100 µM, as early as 1 h
  reduction in expression level of recombinant ER: 50%
HiBiT-ERα; increasing doses, 1 hour, partial PROTAC 100 µM
  change of HiBiT-ERα: dose-dependent decrease
HA-GPER
  degradation of HA-GPER: specific degradation of HA-GPER was measured
HA-CXCR4
  off-target degradation of HA-CXCR4: without detectable off-target degradation
HCC1806 cells
  cell cycle distribution: dramatic increase in the G2/M peak
MCF-7 cells
  cell cycle distribution: dramatic increase in the G2/M peak
MDA-MB-231 cells
  cell cycle distribution: This shift was not observed
SKBR3 cells
  cell cycle distribution: dramatic increase in the G2/M peak
GPER [1]
  plasma membrane and total GPER: reduced plasma membrane and total GPER
GPER [2]; IC50 of 17β-E2 divided by IC50 of test compound
  RBA%, GPER: 330%
GPER [2]; intact SKBR3 cells, E2-FITC, read-out: binding dissociation constant (Kd), GPER
  Kd: ~0.03 µM
